Tested on: HCMV infected cells
Assay: CTL analysis of HPLC purified pp65-CNBr digest peptides
Assay type: cell-based, human
Settings: identification method: by experiment
Protocol: For chemical cleavage with CNBr, pp65 was dissolved in 60% formic acid and treated overnight under argon with a 100 fold molar excess of CNBr (over methionine residues). The solvent was evaporated at room temperature under a stream of argon, the residue resuspended in water and lyophilized. The peptides were fractionated by HPLC on a Vydac C4 reverse phase column, using a 90-minute linear gradient from 100% solvent A (0.1% TFA) to 100% solvent B (TFA/H2O/CH3CN, 0.1/9.9/90, v/v/v/). The HPLC purified peaks from map A were subjected to amino acid sequencing (performed by City of Hope) and from map B were used for CTL analysis (performed at the Fred Hutchinson Cancer Center).
Figure 4 is a map produced by the HPLC analysis. The HPLC purified peptide peaks designated by asterisks in Figure 4 were sequenced. These peptides correspond to sequences 1 through 6 (Sequence ID Nos. 1-6), of this application. The invention includes the use of these six peptides or portions thereof to lyse HCMV infected cells, and as immunogens in HCMV vaccines and skin test formulations.

| Substance | induction of CTLs that lyse HCMV infected cells |
| --- | --- |
| SEQ ID NO:1: Fragment of pp65 protein expressed by HCMV (Towne), 98 amino acid residues, amino acid 12-109 | Induces CTLs that lyse HCMV infected cells |
| SEQ ID NO:6: C-terminal fragment of HCMV pp65 protein, 62 amino acid residues, amino acid 500-561 | Induces CTLs that lyse HCMV infected cells |

From patent publication EP0605432B1, “INDUCTION OF CYTOLYTIC T-L[…] CYTOMEGALOVIRUS POLYPEPTIDES” (CITY OF HOPE, priority 1992, dated 2001)
